Data from US6989364B1, “Methods for treating cardiac hypertrophy by administering IFN-γ” (Genentech, Inc., priority 1998, dated 2006).

Assays:
[1] = test system: left ventricle of male Sprague/Dawley (SD) rats; test: Cardiac gene expression (real-time RT-PCR) in rats treated with fluprostenol and/or IFN-γ; format: in vivo, rat; settings: SKA, SRCA, COL I, ANF; FIG. 6
Text: FIGS. 6A–6D Bargraphs showing the effect of fluprostenol (FLUP) and IFN-γ on: A Skeletal actin (SKA); B Sarcoplasmic reticulum calcium ATPase (SRCA); C Collagen I (COL I); D Atrial natriuretic factor (ANF) expression. Expression levels are normalized to glyceraldehyde-3-phosphate dehydrogenase (GAPDH) message. VEH is vehicle. There were 7 animals per group and the data are presented as the mean±SEM. P<0.05 vs VEH group.
RNA preparation Total RNA was isolated using RNeasy Maxi Columns (Qïägen) according to the manufacturer's instructions.
RT-PCR Real-time RT-PCR (TaqMan) technology was used to compare the gene expression between the various treatment groups. An oligonucleotide probe containing a fluorescent reporter dye, […], at the 3′-end was designed to hybridize to the amplicon defined by two PCR primers. A 3′-blocking phosphate prevents extension of the probe. The reporter dye is released from the probe by the 5′ exonuclease activity of Taq polymerase during the extension phase of PCR reaction. […] The threshold cycle number (Ct), defined as the point where the reporter fluorescence reaches a value greater than 10 times the standard deviation of the baseline, is […] to the amount of amplicon produced from the sample. Since the fluorescence is detected during the exponential phase of the amplification, none of the reaction components are limiting. In each experiment, a control is analyzed that lacks the RNA template to monitor for contamination, and another control is included where the RT step is omitted to eliminate amplification of possible contaminating DNA as the source of the signal. Reactions are optimized to give the greatest fluorescence signal and smallest Ct by titration of magnesium and primer concentrations, and the product is run on an agarose gel to verify the presence of a single band at the predicted molecular weight. […]
Quantitation of the TaqMan results was performed as described by Heid et al., Genome Res. 6:986–994 (1996), with modifications. […]

[2] = test system: adult rat cardiac myocytes; test: Inhibition of phenylephrine-induced spreading response of adult myocytes; format: cell-based; settings: IFN-γ 500 U/ml, PE 10^−5 M, 72 hr
Description: FIGS. 3A–3F Inhibition of phenylephedrine (PE)-induced spreading response by IFN-γ. Myocytes were pre-incubated with saline vehicle or IFN-γ (500 U/ml) on day of isolation. A second addition of vehicle or IFN-γ was performed 24h after isolation, along with the addition of either vehicle or PE (10^−5 M). After an additional 72 hr incubation, cells were fixed in glutaraldehyde, stained with eosin Y and viewed by fluorescence microscopy. A, B, C Cardiac myocytes after 4 days in culture: control, PE, and PE+IFN-γ, respectively. D, E, F Histographs showing maximum breadth of rod shaped cardiac myocytes versus percent frequency of breadth occurrence. The maximum breadth of rod-shaped cells was determined by fluorescence microscopy and imaging software. At least 200 rod shaped cells from a single experiment were examined per group. […] P<0.001 for all group comparisons. […]
Isolated adult rat myocytes were plated on laminin-coated plates at a density of 3×10^3 cells/ml. After 72 hours of appropriate stimulation, the cells were fixed with gluteraldehyde and stained with Eosin Y. Images of rod shaped cells were captured under fluorescent microscopy and maximum breadth was determined using imaging software (Simple 32, Compix Imaging, Mars, Pa.).

IFN-γ: recombinant mouse IFN-γ (Genentech, Inc., South San Francisco, Calif., or Genzyme, Cambridge, Mass.)
Inhibition of alterations in cardiac gene expression associated with fluprostenol induced hypertrophy [1]: inhibited all but the atrial natriuretic factor response
Inhibition of phenylephrine-induced myocyte spreading [2]: can also inhibit spreading induced by phenylephrine
